Measured values reported in patent US11197862B2, “Methods of preventing toxicity of platinum drugs” (XOMICS BIOPHARMA, INC., priority 2015, dated 2021).
“Also recorded” adds a separate entry of the source.

Assays:
[1] = tested on: OCT2 and MATE1; assay: Buflomedil inhibition of OCT2 and MATE1 with cisplatin or oxaliplatin as substrate (FIG. 15B); format: cell-based, human
[2] = tested on: MDCK cells expressing OCT2, MATE1 and MATE2K; assay: LDH cytotoxicity of cisplatin in MDCK-II triple-transporter model; format: cell-based, canine; details: 6 μM buflomedil; 1 mM cisplatin; FIG. 7
Procedure: A triple-transporter model for OCT2(SLC22A2), MATE1(SLC47A1), and MATE2-K(SLC47A2) was created by transfecting fully confluent MDCK-II cell monolayers with DNA mixture containing the plasmids encoding OCT2, MATE1, and MATE-2K at concentrations of 40, 15, and 5 ng/μl, respectively. […] This systems were cultured in complete medium consisting of Dulbecco's modified Eagle's medium without phenyl-red with 10% fetal bovine serum in an atmosphere of 5% CO2-95% air at 37° C. The apical medium was adjusted to pH 6.7 with 25 mM of 2-(N-morpholino) ethanesulfonic acid (MES).
Dolutegravir was tested at 10 μM. […] Cytotoxicity was tested using the same procedure described above.

[3] = tested on: Balb/c mice exposed to chronic treatment with Oxaliplatin; assay: Sciatic nerve histology, g-ratio, in chronic oxaliplatin neuropathy model; format: in vivo, mouse; details: OXA 3.5 mg/kg iv, 8 cycles ± BFMD 30 mg/kg ip + 15 mg/kg iv
Procedure: After completion of behavioral and electrophysiological analysis, animals were killed and sciatic nerves were dissected, fixed, stained for myelin and cut as semithin sections. Light microscopy was performed to capture an image of the entire nerve which was then subjected to semi-automatic software-based nerve morphometry in order to assess axon diameter and myelin thickness 20.
To assess changes in nerve cell myelination, we calculated the g ratio of nerve fibers (g-ratio denominates the numerical ratio between the diameter of the axon and the outer diameter of the myelinated fiber; hypomyelination in sciatic nerves, which is associated with platinum neurotoxicity (Boehmerle, W., et al. Sci. Rep. 4, 6370), would thus cause an increase of the g-ratio).

[4] = tested on: HepG2 cells; assay: Anti-proliferation study (SRB assay) in HepG2 cells; details: FIG. 10
Procedure: The potency was determined by the sulforhodamine B (SRB) assay in 96-well plates. […] Seeding density was 3000 cells/well for both cell lines.

[5] = Mortality, clinical observations and body weight in the chronic model; format: in vivo, mouse; details: BFMD 30 mg/kg ip + 15 mg/kg iv ± OXA 3.5 mg/kg iv, twice a week for 4 weeks; n=12/group
[6] = tested on: Balb/c mice exposed to chronic treatment with Oxaliplatin; assay: Caudal nerve conduction study in chronic oxaliplatin neuropathy model; format: in vivo, mouse; details: for caudal nerve action potential amplitude / caudal nerve conduction velocity: OXA 3.5 mg/kg iv, 8 cycles ± BFMD 30 mg/kg ip + 15 mg/kg iv
Procedure: The development of peripheral neuropathy after chronic administration of drugs was assessed by evaluating the nerve conduction velocity (NCV) along caudal and digital nerve using an electromyography apparatus (Myto2 ABN Neuro, Firenze, Italy). Caudal NCV was determined by placing a couple of recording needle electrodes at the base of the tail and a couple of stimulating needle electrodes 3.5 cm distally to the recording points. Similarly, the digital NCV was determined by placing the recording electrodes close to the ankle bone and the stimulating electrodes close to the fourth toe near the digital nerve. The intensity, duration and frequency of stimulation were set up in order to obtain optimal results. All the neurophysiological determinations were performed under standard conditions in a temperature-controlled room (22+/−2° C.) and the animal under isoflurane anesthesia along the whole procedure with continuous monitoring of vital signs.

[7] = tested on: Balb/c mice exposed to chronic treatment with Oxaliplatin; assay: Dynamic Plantar Aesthesiometer Test in chronic oxaliplatin neuropathy model; format: in vivo, mouse; details: for mechanical allodynia, Dynamic Aesthesiometer Test at the end of treatment: OXA 3.5 mg/kg iv, 8 cycles ± BFMD 30 mg/kg ip + 15 mg/kg iv
Procedure: The Dynamic Plantar Aesthesiometer Test was used to determine the alterations in mechanical pain perception and their changes due to pharmacological treatment. Mice were accustomed to the device 3 days before performing the tests after a 1 hour acclimatization period followed by testing. The mechanical nociceptive threshold was assessed using a Dynamic Aesthesiometer Test (model 37450, Ugo Basile Biological Instruments, Comerio. Italy), which generated a linearly increasing mechanical force. At each time point, after the acclimatization period, a servo-controlled mechanical stimulus (a pointed metallic filament, 0.5-mm diameter) was applied to the plantar surface of the hind paw, which exerted a progressively increasing punctuate pressure, reaching up to 15 g within 15 seconds. The pressure evoking a clear voluntary hind-paw withdrawal response was recorded automatically and taken as representing the mechanical nociceptive threshold index. The mechanical threshold was always assessed alternatively on each side every 2 minutes on 3 occasions to yield a mean value. The results represent the maximal pressure (expressed in grams) tolerated by the animals. There was an upper limit cutoff of 30 seconds, after which the mechanical stimulus was automatically terminated.

[8] = tested on: Balb/c mice exposed to chronic treatment with Oxaliplatin; assay: Cold Plate Test in chronic oxaliplatin neuropathy model; format: in vivo, mouse; details: for Cold Plate Test pain signs after third injection / Cold Plate Test pain signs at the end of treatment (eight injections): OXA 3.5 mg/kg iv ± BFMD 30 mg/kg ip + 15 mg/kg iv; for Cold Plate Test pain signs after third injection: 3 cycles
Procedure: Cold Plate Test was used to determine the alterations in cold temperature related pain perception and their changes due to pharmacological treatment. Cold Plate Test was performed by using an apparatus (35100—Hot/Cold Plate. Ugo Basile instruments) composed by a Plexiglas cylinder and a thermostatic plate, able to reach variable temperatures. The mice were placed on the plate set at +4° C., free to move and walk. Two blinded experimenters simultaneously determine the number of pain signs (e.g. jumping, licking, etc.) in a trial of 5 minutes.

[9] = buflomedil 80 mg/kg po 2 hours before OXA, 8 cycles, n=3/group

**Q.** For COc1cc(OC)c(C(=O)CCCN2CCCC2)c(OC)c1 [Buflomedil, 4-pyrrolidin-1-yl-1-(2,4,6-trimethoxyphenyl)butan-1-one], which “difference in IC50s between oxaliplatin and cisplatin as substrate (OCT2 or MATE1)” value [1] is on record?
**A.** The value was “nearly identical IC50s; also recorded: no/minimal difference in its IC50s”.

**Q.** And the “selectivity toward OCT2 over MATE1, cisplatin or oxaliplatin as substrate” value [1]?
**A.** Its value is “great selectivity toward OCT2”.

**Q.** And the “effect on cisplatin cytotoxicity” value [2]?
**A.** The value was “significantly reduced cytotoxicity from 1 mM of cisplatin”.

**Q.** And the “sciatic nerve G-ratio (hypomyelination)” value ([3]; listed as BFMD)?
**A.** The value was “reduction in G-ratio of the OXA+BFMD group vs OXA group”.

**Q.** And the “sciatic nerve G-ratio (hypomyelination)” value ([3]; listed as buflomedil)?
**A.** The value was “effective on reducing sciatic nerve damage”.

**Q.** What about the “effect on anti-tumor potency of oxaliplatin in HepG2” value [4] of the same compound?
**A.** The value was “not buflomedil”.

**Q.** And the mortality [5]?
**A.** The mortality was “Two animals (BFMD and OXA+BFMD groups) died after the first administration; also recorded: one animal (OXA+BFMD group) died after the last administration”.

**Q.** What about the “caudal nerve action potential amplitude” value ([6]; listed as BFMD) of the same compound?
**A.** Its value is “no statistically significant difference among CTRL. BFMD and OXA+BFMD groups”.

**Q.** What about the “caudal nerve conduction velocity” value ([6]; listed as BFMD) of the same compound?
**A.** The value was “small but statistically significant increase when compared to OXA alone”.

**Q.** And the “caudal nerve action potential amplitude” value ([6]; listed as buflomedil)?
**A.** The value was “effective on reducing peripheral neurotoxicity”.

**Q.** What about the “caudal nerve conduction velocity” value ([6]; listed as buflomedil) of the same compound?
**A.** The value was “effective on reducing peripheral neuropathy”.

**Q.** And the “nerve injury assessed by caudal NCV” value [6, 9]?
**A.** Its value is “effective on reducing nerve injury; also recorded: showed protective effects against OXAIPN”.

**Q.** What about the “mechanical allodynia, Dynamic Aesthesiometer Test at the end of treatment” value ([7]; listed as BFMD) of the same compound?
**A.** Its value is “only the groups treated with OXA alone showed the development of mechanical allodynia”.

**Q.** What about the “mechanical allodynia, Dynamic Aesthesiometer Test at the end of treatment” value ([7]; listed as buflomedil) of the same compound?
**A.** Its value is “effective on preventing mechanical allodynia”.

**Q.** And the “mechanical allodynia (mechanical pain threshold)” value [7, 9]?
**A.** Its value is “effective on reducing mechanical (FIG. 30A) and cold (FIG. 30B) allodynia; also recorded: showed protective effects against OXAIPN”.

**Q.** And the “Cold Plate Test pain signs after third injection” value ([8]; listed as BFMD)?
**A.** Its value is “only the group treated with OXA alone showed a significant increase in pain signs”.

**Q.** What about the “Cold Plate Test pain signs after third injection” value ([8]; listed as buflomedil) of the same compound?
**A.** Its value is “effective on reducing cold allodynia”.

**Q.** What about the “Cold Plate Test pain signs at the end of treatment (eight injections)” value ([8]; 8 cycles, listed as BFMD) of the same compound?
**A.** Its value is “significant decrease in pain signs versus OXA alone”.

**Q.** And the “Cold Plate Test pain signs at the end of treatment (eight injections)” value ([8]; 8 cycles, listed as buflomedil)?
**A.** Its value is “effective on reducing cold allodynia”.

**Q.** And the “cold allodynia (cold plate test)” value [8, 9]?
**A.** The value was “effective on reducing mechanical (FIG. 30A) and cold (FIG. 30B) allodynia; also recorded: showed protective effects against OXAIPN”.
